Data on 13 compounds can be found in ChEMBL document CHEMBL1201862, “PubChem BioAssay data set” (2004).

Common to all, as to experiment: inhibition of tumour cell growth, NCI panel, 48 h
Assay [1] concerns SK-OV-3.
Assay [2] has as its system HCT-15.
For assay [3], the system named is UACC-62.
The subject of assay [4] is ACHN.
For assay [5], the system named is NCI-H23.
For assay [6], the system named is SF-539.
Assay [7] concerns A549.
Assay [8] relates to OVCAR-3.
For assay [9], the system named is Malme-3M.
In assay [10] the test system is SK-MEL-28.
Assay [11] relates to K562.
Assay [12] relates to M14.
The subject of assay [13] is OVCAR-5.
The subject of assay [14] is OVCAR-8.
Assay [15] relates to 786-0.
Assay [16] has as its system U-251.

Structures are written as SMILES.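 1) Cells in 96-well plates. 2) Compound, 48 h, 5 concentrations. 3) Linear interpolation between surrounding doses. 4) Unreached endpoint = highest concentration. GI50 marks 50% less growth.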 The source made the active and inactive calls. Rule as the data show it: active = GI50 up to about 1.1 µM and inactive = higher. A value given as a limit tells only on which side of the number the result lay.

In the case of `CCNC(=O)O/N=C1\CCC2[C@@H]3CC=C4C[C@@H](OC(=O)NCC)CC[C@]4(C)C3CC[C@]12C` (stereo not given in full), the GI50 was 7.82 µM (inactive) in assay [1]; 2.15 µM in assay [2]; 0.951 µM (active) in assay [3]; 1.38 µM (inactive) in assay [4]; 1.08 µM (active) in assay [5]; 8.95 µM (inactive) in assay [6]. In addition, the GI50 in assay [7] was 2.16 µM (inactive); in [8] it was 2.21 µM (inactive); in [9], 0.267 µM (active); in assay [10], 3.19 µM (inactive); in assay [11], 0.769 µM (active); in assay [12] it was 1.31 µM (inactive). For the same compound, the GI50 in assay [13] is 2.58 µM (inactive); in [14] it was 4.03 µM (inactive); in [15], 2.91 µM (inactive); in assay [16], 2.09 µM (inactive).
In the case of `C/C(N)=[N+](/C)[O-]`, the GI50 in [1] was > 100 µM (inactive); in assay [2], 19.9 µM; in assay [3] it was > 100 µM (inactive); in assay [4] it was 31.6 µM (inactive); in [5], > 100 µM (inactive); in assay [6] it was 69.2 µM (inactive). The GI50 in assay [7] was > 100 µM (inactive); in assay [8], > 100 µM (inactive); in [9], > 100 µM (inactive); in assay [10] it was 82.4 µM (inactive); in assay [11], 39.5 µM (inactive); in [12] it was > 100 µM (inactive). Further, the GI50 in assay [13], in assay [14], in assay [15] and in assay [16] was > 100 µM (inactive) throughout.
On to `C[C@]12CCC(=O)C(O)=C1CC[C@@H]1C2CC[C@]2(C)NC(=O)CCC12` (stereo not given in full), for which the GI50 is > 100 µM (inactive) in assay [1]; 70.6 µM in assay [2]; > 100 µM (inactive) in [3]; > 100 µM (inactive) in assay [4]; > 100 µM (inactive) in [5]; > 100 µM (inactive) in assay [6]. For the same compound, the GI50 in assay [7], in assay [8], in assay [9], in assay [10], in assay [11] and in assay [12] was > 100 µM (inactive) each time. Further, the GI50 in assay [13], in assay [14], in [15] and in [16] was > 100 µM (inactive) each time.
As for `COC(=O)[C@@H]1C[C@H](c2ccc(OC)c(OC)c2)OC1=O.COC(=O)[C@H]1C[C@H](c2ccc(OC)c(OC)c2)OC1=O`, the GI50 in [1] was > 100 µM (inactive); in assay [2], more than 100 µM; in [3], > 100 µM (inactive); in assay [4] it was > 100 µM (inactive); in [5], > 100 µM (inactive); in [6] it was > 100 µM (inactive). Also, the GI50 in assay [7], in [8], in assay [9], in assay [10], in [11] and in assay [12] was > 100 µM (inactive) in each case. In addition, the GI50 in [13], in [14], in [15] and in [16] was > 100 µM (inactive) throughout.
Take `N[C@H]1C2C3CC4C5CC(C42)C1(c1ccccc1)C53` (stereo not given in full): the GI50 was > 100 µM (inactive) in assay [1]; more than 100 µM in [2]; > 100 µM (inactive) in [3]; > 100 µM (inactive) in assay [4]; > 100 µM (inactive) in assay [5]; > 100 µM (inactive) in [6]. For the same compound, the GI50 in assay [7], in assay [8], in [9], in assay [10], in assay [11] and in assay [12] was > 100 µM (inactive) in each case. Besides, the GI50 in [13] was 75 µM (inactive); in assay [14], > 100 µM (inactive); in [15], > 100 µM (inactive); in assay [16], > 100 µM (inactive).
As for `CCC1=CCC(P(=O)(c2ccccc2)c2ccccc2)CC1C` (stereo not given), the GI50 in assay [1] was 62.8 µM (inactive); in assay [2] it was 34.9 µM; in [3] it was 33.3 µM (inactive); in [5], 39.7 µM (inactive); in assay [6], 42.9 µM (inactive); in assay [7], 37.1 µM (inactive). Further, the GI50 in assay [8] is 35.4 µM (inactive); in [9], 41.7 µM (inactive); in assay [10], 37.8 µM (inactive); in assay [11], 35.2 µM (inactive); in assay [12] it was 32.6 µM (inactive); in assay [13] it was 65.2 µM (inactive). Further, the GI50 in assay [14] was 39.1 µM (inactive); in [15] it was 39 µM (inactive); in assay [16], 46.1 µM (inactive).
For `COC1=CC(=O)C2[C@H]3Cc4ccccc4[C@H]3C2(C)C1=O` (stereo not given in full), the GI50 in assay [1] was > 100 µM (inactive); in [2] it was 94.6 µM; in assay [3], > 100 µM (inactive); in [4] it was > 100 µM (inactive); in assay [5], > 100 µM (inactive); in [6] it was > 100 µM (inactive). Moreover, the GI50 in assay [7] was > 100 µM (inactive); in assay [8], > 100 µM (inactive); in assay [9], > 100 µM (inactive); in assay [10], > 100 µM (inactive); in assay [11], 52.1 µM (inactive); in assay [12], > 100 µM (inactive). For the same compound, the GI50 in [13], in assay [14], in assay [15] and in [16] was > 100 µM (inactive) in each case.
Regarding `C/N=N/N(C)C(=O)NC`, the GI50 in assay [1] is > 100 µM (inactive); in [2], more than 100 µM; in assay [3], > 100 µM (inactive); in [4], > 100 µM (inactive); in assay [5], > 100 µM (inactive); in assay [6] it was > 100 µM (inactive). The GI50 in assay [7], in [8], in assay [9], in assay [10], in assay [11] and in [12] was > 100 µM (inactive) throughout. Also, the GI50 in assay [13], in assay [14], in assay [15] and in assay [16] was > 100 µM (inactive) each time.
On to `CN1C(=O)C(C)(C)NS1(=O)=O`, for which the GI50 in assay [1] is > 100 µM (inactive); in assay [2] it was more than 100 µM; in assay [3], > 100 µM (inactive); in assay [4], > 100 µM (inactive); in assay [5] it was > 100 µM (inactive); in assay [6], > 100 µM (inactive). In addition, the GI50 in assay [7], in assay [8], in assay [9], in assay [10], in [11] and in [12] was > 100 µM (inactive) throughout. The GI50 in assay [13], in assay [14], in assay [15] and in [16] was > 100 µM (inactive) throughout.
For the compound `COC(=O)[C@@H]1c2[nH]c3ccccc3c2C[C@@H]2c3ccccc3NC(=O)[C@@H]21`, the GI50 in assay [1] was 20.7 µM (inactive); in assay [2], more than 100 µM; in assay [3], > 75.7 µM (inactive); in [4], > 100 µM (inactive); in assay [5], > 90.8 µM (inactive); in assay [6], 43.7 µM (inactive). Also, the GI50 in assay [7] is 38.8 µM (inactive); in assay [8], > 53.6 µM (inactive); in assay [9] it was > 46.5 µM (inactive); in assay [10] it was > 91 µM (inactive); in [11] it was > 100 µM (inactive); in [12], > 78.5 µM (inactive). For the same compound, the GI50 in [13] was > 100 µM (inactive); in [14], 21.3 µM (inactive); in [15] it was 42.8 µM (inactive); in assay [16], 15.4 µM (inactive).
Regarding `COc1ccc(C(=O)N/N=C/c2c(C)n(C)n(-c3ccccc3)c2=O)cc1`, the GI50 in assay [1] was > 100 µM (inactive); in assay [2] it was more than 100 µM; in assay [3], > 100 µM (inactive); in assay [4], > 100 µM (inactive); in assay [5] it was > 100 µM (inactive); in assay [6] it was > 100 µM (inactive). For the same compound, the GI50 in assay [7], in assay [8], in [9], in assay [10], in [11] and in [12] was > 100 µM (inactive) each time. The GI50 in assay [14], in [15] and in assay [16] was > 100 µM (inactive) each time.
As for `NC(=O)COc1c(Br)cc(Br)cc1Br`, the GI50 in assay [1] was > 100 µM (inactive); in assay [2] it was more than 100 µM; in assay [3], > 100 µM (inactive); in assay [4] it was > 100 µM (inactive); in [5], > 100 µM (inactive); in assay [6], > 100 µM (inactive). The GI50 in [7], in [8], in assay [9], in assay [10], in assay [11] and in assay [12] was > 100 µM (inactive) throughout. Besides, the GI50 in [13], in [14], in [15] and in assay [16] was > 100 µM (inactive) each time.
As to `O=C(CC1(O)C(=O)Nc2ccccc21)c1cccc(O)c1` (stereo not given), the GI50 in [1] is > 100 µM (inactive); in assay [2], more than 100 µM; in [3], > 100 µM (inactive); in assay [4], > 100 µM (inactive); in assay [5], > 100 µM (inactive); in assay [6], > 100 µM (inactive). The GI50 in [7], in assay [8], in [9], in assay [10], in assay [11] and in assay [12] was > 100 µM (inactive) throughout. For the same compound, the GI50 in assay [13], in assay [14] and in assay [15] was > 100 µM (inactive) in each case.
